Reference: patent publication US20050148514A1, “Method and composition for treatment of angiogenesis” (priority 2003, published 2005)
Where no end group is shown, it is not given here.

How the values were obtained:
[1] = test system: total MMP-9, i.e., human active and pro-MMP-9; test: Total MMP-9 ELISA (Quantikine) on plasma of prostate cancer patients treated with the drug; format: in vivo; details: for MMP-9 level in plasma, D27C1: day 27 of treatment cycle 1; for Maximum Reduction of MMP-9: versus baseline D1C1; for MMP-9 level in plasma, D27C2: day 27 of treatment cycle 2
Experimental: The reconstituted drug used in the present example is made from a solution containing a 20 mg/mL of PCK3145 derivative (SEQ ID NO.:5 derivative); SEQ ID NO.: 7, in a phosphate buffer at pH 7.4 for dilution in sterile saline (0.9% NaCl, BP) prior to intravenous administration. The solutions is filled into Type 1 glass vials, stoppered with Teflon®-faced butyl stoppers, and sealed with flip-off seals.
The drug was administered to patients characterized as having metastatic adenocarcinoma of the prostate, stage 1V prostatic cancer and as having a metastatic hormone resistant prostatic cancer.
Biological samples were drawn during different time points. Plasma samples were placed on dry ice and stored frozen (approximately −70° C.) and subsequently analyzed for total MM P-9 levels.
MMP-9 assay methodology. An Elisa assay measuring total MMP-9, i.e., human active and pro-MMP-9, (Quantikine®, Cat. No.: DMP900, R&D Systems Inc.) was performed on plasma-heparin samples. Plasma samples have been collected from individuals at day 1 (before treatment) and at day 27 of each treatment cycle.
The Quantikine® MMP-9 immunoassay is a solid phase ELISA designed to measure total MMP-9 (92 kDa pro- and 82 kDa active forms) in serum, plasma, saliva, urine and cell culture supernatants. It is calibrated with CHO-cells expressed recombinant human pro-MMP-9 and the antibodies were raised against the recombinant factor. Both antibodies also recognize recombinant human active MMP-9.
The assay employs the quantitative sandwich enzyme immunoassay technique. A monoclonal antibody specific for MMP-9 has been pre-coated onto a microplate. Standards and samples are added into the wells, and MMP-9 is thus bound by the immobilized antibody. After washing away unbound substances, an enzyme-linked polyclonal antibody specific for MMP-9 is added to the wells. Following a wash to remove unbound antibody-enzyme reagent, a substrate solution is added to the wells and color develops in proportion to the amount of total MMP-9 (pro and/or active) bound in the initial step. The color development is stopped and the intensity of the color is measured.
Results of MMP-9 levels in patient's plasma, before and after one or more treatment cycle with PCK3145 derivative; SEQ ID NO.: 7 are illustrated in Table 2.
Normal values of healthy volunteers were not determined in this study but lizasa et al., has determined that the normal range of plasma MMP-9 concentrations is about 11.4 to 59.4 ng/ml. Based on theses values, patients were sub-divided into two categories; those having normal value of MMP-9 (below 100 μg/L) and those having an elevated level of MMP-9 (higher than 100 μg/L) at baseline (see column identified as D1C1 in Table2).

ERK = test: PDGF-induced ERK phosphorylation in PASMC; format: cell-based; details: treatment as for HUVEC
Experimental: Cell culture. Human umbilical vein endothelial cells (HUVEC) and pulmonary aortic smooth muscle cells (PASMC) were obtained from Clonetics and maintained in endothelial cell basal medium-2, (EBM-2; Clonetics) and smooth muscle medium-2 (SmGM-2; Clonetics), respectively. Cells were cultured at 37° C. under a humidified atmosphere containing 5% CO2. For experimental purposes, cells were plated in 8 100-mm plastic dishes at 5,000 cells/cm^2 and were grown to confluence before overnight serum starvation. Cells were treated with vehicle or with a PCK3145 derivative diluted in 0.1 N NaOH, and stimulated with 50 ng/ml VEGF, PDGF or with 1 μM S1P.
Immunoprecipitation and immunoblotting procedures. After treatment, cells were washed once with phosphate-buffered saline (PBS) containing 1 mM sodium orthovanadate and were incubated in the same medium for 1 h at 4° C. The cells were solubilized on ice in lysis buffer (150 mM NaCl, 10 mM Tris-HCl, pH 7.4, 1 mM EDTA, 1 mM EGTA, 0.5% Nonidet P-40, 1% Triton X-100) containing 1 mM sodium orthovanadate. The cells were then scraped from the culture dishes and the resulting lysates were clarified by centrifugation at 10,000 g for 10 min. Protein concentrations were determined using the micro bicinchoninic acid method. For immunoprecipitation studies, lysates were clarified by a 1 h incubation at 4° C. with a mixture of Protein A/Protein G Sepharose beads. […]

Sequence: EWQTDNCETCTCYET (cysteine pairing not given here)
- change in MMP-9 levels compared to baseline ([1]; elevated MMP-9 category (patients A, B, C and D), each patient after one cycle of treatment): significant decrease
- change in MMP-9 levels compared to baseline ([1]; normal value MMP-9 category (patients E, F, G, H and I), after one cycle of treatment): no significant decrease
- decrease in MMP-9 levels compared to baseline levels ([1]; patient A, after one cycle of treatment): up to 89%
- MMP-9 level in plasma, D27C1 ([1]; patient A, elevated MMP-9 (baseline D1C1 424)): 47.3 µg/L
- Maximum Reduction of MMP-9 ([1]; patient A): 89%
- decrease in MMP-9 ([1]; patient B, after cycle 1): 41%
- MMP-9 level in plasma, D27C1 ([1]; patient B, elevated MMP-9 (baseline D1C1 156.5)): 91.6 µg/L
- reduction of baseline level of MMP-9 ([1]; patient B, treatment cycle 2): 64%
- reduction of baseline level of MMP-9 ([1]; patient B, treatment cycle 3): 65%
- reduction of baseline level of MMP-9 ([1]; patient B, treatment cycle 4): 75%
- Maximum Reduction of MMP-9 ([1]; patient B): 75%
- decrease in MMP-9 ([1]; patient C, at cycle 1): 90%
- reduction in MMP-9 levels ([1]; patient C, cycle 2): 76%
- MMP-9 level in plasma, D27C1 ([1]; patient C, elevated MMP-9 (baseline D1C1 155)): 14.9 µg/L
- Maximum Reduction of MMP-9 ([1]; patient C): 90%
- decrease in MMP-9 ([1]; patient D, at cycle 1): 34%
- MMP-9 level in plasma, D27C1 ([1]; patient D, elevated MMP-9 (baseline D1C1 130.2)): 85.2 µg/L
- Maximum Reduction of MMP-9 ([1]; patient D): 34%
- MMP-9 level in plasma, D27C2 ([1]; patient E (baseline D1C1 57.5)): 60.1 µg/L
- change in MMP-9 levels compared to baseline ([1]; patient E, after 3 cycles of treatment): still no MMP-9 decrease
- MMP-9 level in plasma, D27C1 ([1]; patient E, normal MMP-9 (baseline D1C1 57.5)): 58 µg/L
- MMP-9 level in plasma, D27C1 ([1]; patient F, normal MMP-9 (baseline D1C1 53.2)): 73.1 µg/L
- MMP-9 level in plasma, D27C2 ([1]; patient G (baseline D1C1 33.9)): 189.6 µg/L
- MMP-9 level in plasma, D27C1 ([1]; patient G, normal MMP-9 (baseline D1C1 33.9)): 45.4 µg/L
- MMP-9 level in plasma, D27C2 ([1]; patient H (baseline D1C1 57.0)): 65 µg/L
- MMP-9 level in plasma, D27C1 ([1]; patient H, normal MMP-9 (baseline D1C1 57.0)): 44.0 µg/L
- MMP-9 level in plasma, D27C1 ([1]; patient I, normal MMP-9 (baseline D1C1 22.1)): 18.8 µg/L
- change in MMP-9 levels compared to baseline ([1]; patients E and G, after 2 cycles of treatment): no decrease in MMP-9 levels was observed
- PDGF-induced ERK phosphorylation (ERK): inhibition
